Measurements reported in patent publication US7105521B2, “Eugenosedin-A based pharmacoligical agents” (Syn-Tech Chem & Pharm Co., Ltd., priority 2003, dated 2006).

Tests used:
α2 receptors = experiment: Receptor binding, [3H]yohimbine, rat cortex; parameters: species or system Wistar rat
Method: (§1) Drugs and chemicals. […] Eugenosedin-A synthesized in this laboratory was solvated in 50% absolute alcohol, 10% propylene glycol and further diluted with distilled water. All of the [^3H] ligand was purchased from New England Nuclear Corp. (Boston, Mass., U.S.A.).
(§2) Receptor binding studies. […] The homogenate was pressure filtered through muslin. Filtrate was centrifuged at 1000 g for 10 min. Supernatant was centrifuged at 10,000 g for 12 min at 4° C. The second supernatant was centrifuged at 30,000 g for 15 min at 4° C. The final pellet was re-suspended in assay buffer (75 mM Tris HCl, 25 mM MgCl2, pH 7.4). Protein content was determined by Bradford's method. Radioligand agents and membranes (200–300 μg) were incubated for 60 min at 25° C. with or without the addition of nonspecific binding agents, in a 75 mM Tris HCl buffer with 25 mM MgCl2, to make a final volume of 500 μl. In competitive-binding experiments, the competing agent was added directly to the incubation mixture. Incubation was terminated by addition of 1 ml of ice-cold assay buffer followed by immediate filtration through Whatman GF/C glass fiber filters supported on a 12-port filter manifold (Millipore). The filters were immediately washed 3 times with 5 ml of ice-cold assay buffer and dried in an oven at 60° C. for 2 hours before adding 5 ml of Triton-toluene-based scintillation fluid. Membrane-bound radioligand trapped in the filters was counted in a Beckman LS6500 scintillation system (Fullerton, Calif., U.S.A) with an efficiency of 45%. In each experiment, nonspecifically bound radioligand agents were determined by incubating membrane protein. Specific binding for each sample was obtained by deducting this value from the total binding of radioligand agents.

5-HT2A receptor = 5-HT2A receptor (Rattus norvegicus, UniProt P14842); experiment: Receptor binding, [3H]ketanserin, rat cortex; parameters: from tissue; host or cells: Wistar rat cortex membranes; species or system Wistar rat; conditions: [3H]ketanserin, rat cortex
Method: as §1, §2

α1 receptors = experiment: Receptor binding, [3H]prazosin, rat cortex; parameters: species or system Wistar rat
Method: as §1, §2

IL-1β = experiment: Plasma cytokine immunoreactivity after LPS: IL-1β; assay type: in vivo, Wistar rats; conditions: 3 hours after LPS 10 mg kg^−1 i.v.; pretreatment (eugenosedin-A 1 mg kg^−1 i.v.)
Method: (§3) Plasma cytokine immunoreactivity and blood glucose. Blood was collected from venous cannula, injected into ice-cold heparinized Eppendorf tubes and centrifuged at 1500 rpm for 10 min at 4° C. Plasma supernatant was stored at −70° C. until analyzed. Solid phase enzyme immunoassay that specifically detects murine IL-1β, IL-6, IFN-γ and TNF-α was used with a detection limit of >10 pg/ml (Endogen, U.S.A). Pretreatment with eugenosedin-A and other agents was performed 15 minutes before intravenous injection of LPS. Blood was collected from venous cannula. Blood glucose was measured with a glucose test strip (Glucotide, Bayer, U.S.A) at 1, 3 and 5 hours.

TNF-α = experiment: Plasma cytokine immunoreactivity after LPS: TNF-α; assay type: in vivo, Wistar rats
Method: as §3

LPS-induced hypotension = assay type: in vivo, Wistar rats; conditions: LPS 10 mg kg^−1 i.v.; for LPS-induced hypotension: 15 mg kg^−1 i.v.; for development of hypotension after LPS injection and normalization of BP: i.v. pretreatment; for second prolonged hypotensive phase after LPS: pretreatment 0.5 and 1 mg kg^−1 i.v.
Method: Intravenous injection. The experiments were carried out as previously described (Wu B N. et al., Biochem. Pharmacol., 48:101–109, 1994). In brief, Wistar rats weighing 250–300 grams were anesthetized with pentobarbital sodium (50 mg kg^−1, i.p.). Following tracheal cannulation, systemic arterial BP and HR were recorded from the femoral artery by a pressure transducer (model P10EZ; Spectramed, Oxnard, Calif., U.S.A.) connected to a recorder (GOULD, Valley View, Ohio, Model P50). Body temperature was maintained at 37° C. by an electric heating pad. A femoral vein was cannulated for intravenous injection of drugs and LPS (10 mg kg^−1).

Blood glucose after LPS = assay type: in vivo, Wistar rats; conditions: for initial hyperglycemic response to LPS: blood glucose at 1 and 3 hours after LPS; for hypoglycemic response to LPS: blood glucose at 5 hours after LPS
Method: as §3

IFN-γ = experiment: Plasma cytokine immunoreactivity after LPS: IFN-γ; assay type: in vivo, Wistar rats; conditions: 1 hour after LPS administration
Method: as §3

[1] = Micro-injection in NTS: BP and HR; assay type: in vivo, rats; conditions: for pressor response and HR: NTS micro-injection, 0.03, 0.3 μmol, within 30 minutes after injection
Excerpt: Micro-injection in NTS. Rats were anesthetized and placed in a David-Kopf stereotaxic instrument. The cerebellum was exposed after removing the skin and occipital bone. […] At the end of experiments, the animals were sacrificed. The brain was removed and sectioned for histological confirmation of the drug application site.

α2-adrenoceptor = experiment: Intra-cisternal antagonism of clonidine-induced hypotension and bradycardia; assay type: in vivo, rats; conditions: for hypotensive effect of clonidine: given 15 min before clonidine injection
Method: (§4) Intra-cisternal injections. […] Briefly, rats weighing 250–300 g were anaesthetized with pentobarbital sodium (50 mg kg^−1, i.p.) and mounted in a David-Kopf stereotaxic instrument (Yeh J L. et al., Brain. Res. Bull., 30:641–648, 1993). The calvarium was exposed and a 1 mm diameter trephine hole was drilled 1.8 mm lateral to the coronary and 1.5 mm posterior to the sagittal sutures. A cannula (0.7 mm O.D.) connected to a Hamilton syringe (RN-705, 5051) by PE-50 was advanced 4.7 mm into the brain using the electrode carrier.

[2] = Peroxyl radical scavenging, B-phycoerythrin/AAPH; assay type: biochemical
Method: The stoichiometric factors of the test compounds with hydrophilic peroxyl radicals were calculated by the equation as mentioned Ascorbic acid was used as a positive control.

[3] = Intra-cisternal injections: mean arterial BP and HR; assay type: in vivo, rats; conditions: for effect on mean arterial BP and HR: eugenosedin-A and trazodone 0.3, 0.03 μmol, yohimbine 0.03 μmol
Method: as §4

[4] = 3 hours after LPS 10 mg kg^−1 i.v., pretreatment (eugenosedin-A 1 mg kg^−1 i.v.)
[5] = 5 hours after LPS 10 mg kg^−1 i.v., pretreatment

Chain of 5-HT2A receptor (P14842 whole entry): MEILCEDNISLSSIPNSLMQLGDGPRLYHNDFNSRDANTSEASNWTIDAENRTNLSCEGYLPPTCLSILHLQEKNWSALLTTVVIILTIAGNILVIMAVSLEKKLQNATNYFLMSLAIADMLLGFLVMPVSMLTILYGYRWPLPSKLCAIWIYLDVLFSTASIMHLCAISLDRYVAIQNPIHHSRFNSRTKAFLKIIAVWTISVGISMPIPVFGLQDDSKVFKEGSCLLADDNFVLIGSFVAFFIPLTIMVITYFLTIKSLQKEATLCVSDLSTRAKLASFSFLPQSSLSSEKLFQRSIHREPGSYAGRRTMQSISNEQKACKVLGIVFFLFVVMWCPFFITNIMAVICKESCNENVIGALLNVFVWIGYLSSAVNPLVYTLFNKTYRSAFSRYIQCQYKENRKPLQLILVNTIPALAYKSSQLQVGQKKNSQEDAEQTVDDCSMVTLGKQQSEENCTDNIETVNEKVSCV

NCCc1c[nH]c2ccc(O)cc12 [Compound 5-HT, serotonin]
order of α2 receptor binding potency (α2 receptors): prazosin >eugenosedin-A >ketanserin >methylsergide >propranolol and 5-HT
order of potency on 5-HT2A receptors (5-HT2A receptor): ketanserin >methylsergide >eugenosedin-A >5-HT >propranolol >prazosin
binding affinity for α1 receptors (α1 receptors): lower binding affinities for α1 receptors
order of α1 receptor binding potency (α1 receptors): prazosin >ketanserin >eugenosedin-A >methylsergide, propranolol and 5-HT

Cl.N=C(N)NN [aminoguanidine, aminoguanidine HCl]
LPS-induced increase in IL-1β (IL-1β): significantly inhibited
LPS-induced increase in TNF-α (TNF-α; [4]): significantly inhibited
LPS-induced hypotension (LPS-induced hypotension): inhibited LPS-induced hypotension
initial hyperglycemic response to LPS (Blood glucose after LPS): inhibited the initial hyperglycemic response to LPS
hypoglycemic response to LPS (Blood glucose after LPS): did not reverse the hypoglycemic response

O=C1O[C@H]([C@@H](O)CO)C(O)=C1O [ascorbic acid]
LPS-induced increase in IL-1β (IL-1β): significantly inhibited
LPS-induced production of IFN-γ (IFN-γ): insignificantly enhanced
LPS-induced increase in TNF-α (TNF-α; [4]): significantly inhibited
LPS-induced hypotension (LPS-induced hypotension): inhibited LPS-induced hypotension
initial hyperglycemic response to LPS (Blood glucose after LPS): inhibited the initial hyperglycemic response to LPS
hypoglycemic response to LPS (Blood glucose after LPS): did not reverse the hypoglycemic response

CNCCC(Oc1ccc(C(F)(F)F)cc1)c1ccccc1 (stereo not shown) [fluoxetine]
pressor response and HR [1]: mild, but significant, pressor responses and increased the HR

O=C(c1ccc(F)cc1)C1CCN(CCn2c(=O)[nH]c3ccccc3c2=O)CC1 [ketanserin]
binding affinity for α2-adrenoceptors (α2 receptors): had binding affinities for α2-adrenoceptors
order of α2 receptor binding potency (α2 receptors): prazosin >eugenosedin-A >ketanserin >methylsergide >propranolol and 5-HT
order of potency on 5-HT2A receptors (5-HT2A receptor): ketanserin >methylsergide >eugenosedin-A >5-HT >propranolol >prazosin
order of α1 receptor binding potency (α1 receptors): prazosin >ketanserin >eugenosedin-A >methylsergide, propranolol and 5-HT

CC[C@@H](CO)NC(=O)[C@@H]1C=C2c3cccc4c3c(cn4C)C[C@H]2N(C)C1 [methysergide]
binding affinity for α2-adrenoceptors (α2 receptors): had binding affinities for α2-adrenoceptors
order of α2 receptor binding potency (α2 receptors): prazosin >eugenosedin-A >ketanserin >methylsergide >propranolol and 5-HT
binding affinity for α1 receptors (α1 receptors): lower binding affinities for α1 receptors
order of α1 receptor binding potency (α1 receptors): prazosin >ketanserin >eugenosedin-A >methylsergide, propranolol and 5-HT

CC(C)NCC(O)COc1cccc2ccccc12 (stereo not shown) [propranolol]
order of α2 receptor binding potency (α2 receptors): prazosin >eugenosedin-A >ketanserin >methylsergide >propranolol and 5-HT
order of α1 receptor binding potency (α1 receptors): prazosin >ketanserin >eugenosedin-A >methylsergide, propranolol and 5-HT

O=c1n(CCCN2CCN(c3cccc(Cl)c3)CC2)nc2ccccn12 [trazodone]
LPS-induced increase in IL-1β (IL-1β): significantly inhibited
hypotensive effect of clonidine (α2-adrenoceptor): antagonized the hypotensive effect of clonidine
LPS-induced increase in TNF-α (TNF-α; [4]): significantly inhibited
LPS-induced increase in TNF-α (TNF-α; [5]): significantly reduced
development of hypotension after LPS injection and normalization of BP (LPS-induced hypotension): normalized BP within 5 hours
first immediate hypotensive phase after LPS (LPS-induced hypotension; pretreatment 0.5 mg kg^−1 i.v.): not affected
first immediate hypotensive phase after LPS (LPS-induced hypotension; pretreatment 1 mg kg^−1 i.v.): attenuated it
second prolonged hypotensive phase after LPS (LPS-induced hypotension): significantly reduced
pressor response and HR [1]: mild, but significant, pressor responses and increased the HR
scavenging of AAPH-derived peroxyl radicals (B-phycoerythrin fluorescence, lag time) [2]: did not scavenge peroxyl radicals
effect on mean arterial BP and HR [3]: increased mean arterial BP and HR

COC(=O)[C@@H]1[C@H]2C[C@H]3c4[nH]c5ccccc5c4CCN3C[C@@H]2CC[C@@H]1O [yohimbine]
LPS-induced increase in IL-1β (IL-1β): significantly inhibited
LPS-induced production of IFN-γ (IFN-γ): insignificantly enhanced
hypotensive effect of clonidine (α2-adrenoceptor): antagonized the hypotensive effect of clonidine
clonidine-induced bradycardia (α2-adrenoceptor; low dose, 0.03 μmol): did not inhibit clonidine-induced bradycardia
LPS-induced increase in TNF-α (TNF-α; [4]): significantly inhibited
LPS-induced increase in TNF-α (TNF-α; [5]): significantly reduced
development of hypotension after LPS injection and normalization of BP (LPS-induced hypotension): normalized BP within 5 hours
first immediate hypotensive phase after LPS (LPS-induced hypotension; pretreatment 0.5 mg kg^−1 i.v.): not affected
first immediate hypotensive phase after LPS (LPS-induced hypotension; pretreatment 1 mg kg^−1 i.v.): attenuated it
second prolonged hypotensive phase after LPS (LPS-induced hypotension): significantly reduced
HR increase ([1]; NTS micro-injection, 0.03 μmol): up to 78 bpm
pressor response ([1]; NTS micro-injection, 0.03 μmol): up to 13 mmHg
increase of HR ([3]; 0.03 μmol): up to 78 bpm
pressor response ([3]; 0.03 μmol): up to 13 mmHg
effect on mean arterial BP and HR [3]: increased mean arterial BP and HR
